Assay results: PMC12504763, “Antiproliferation, 3D-multicellular spheroid and VEGFR-2 inhibitory properties of spiroindolin-2-ones with phosphonate function” (Scientific Reports, 2025)
Like-named read-outs stand apart in the source and are kept apart here.

What was measured:
[1] = system: HCT116 (colon) cancer cell line; assay: 2D-monolayer antiproliferation (MTT) against HCT116; assay type: cell-based, human; conditions: for IC50: Homo sapiens, HCT-116; for SI (selectivity index) HCT116: IC50 of RPE1 normal cell/IC50 of HCT116
[2] = system: PaCa2 (pancreatic) cancer cell line; assay: 2D-monolayer antiproliferation (MTT) against PaCa2; assay type: cell-based, human; conditions: for 1/(observed property): 1/observed IC50 (μM), PaCa2; for IC50: Homo sapiens, PaCa-2, MTT, 72 h incubation, PaCa2 pancreatic, read-out: IC50, μM ± SEM PaCa2; for SI (selectivity index) PaCa2: IC50 of RPE1 normal cell/IC50 of PaCa2
[3] = system: MCF7 (breast) cancer cell line; assay: 2D-monolayer antiproliferation (MTT) against MCF7; assay type: cell-based, human; conditions: for IC50: Homo sapiens, MTT, 72 h incubation, MCF7 breast, read-out: IC50, μM ± SEM MCF7; for SI (selectivity index) MCF7: IC50 of RPE1 normal cell/IC50 of MCF7
[4] = system: A549 (lung) cancer cell line; assay: 2D-monolayer antiproliferation (MTT) against A549; assay type: cell-based, human; conditions: for IC50: Homo sapiens, MTT, 72 h incubation, A549 lung, read-out: IC50, μM ± SEM A549; for SI (selectivity index) A549: IC50 of RPE1 normal cell/IC50 of A549
[5] = system: RPE1 (normal human immortalized retinal pigment epithelial cell line); assay: cells; assay type: cell-based; conditions: for IC50: Homo sapiens, RPE-1, MTT, normal RPE1 cell, read-out: IC50, μM ± SEM RPE1
VEGFR-2 [6] = biological target: T1, VEGFR-2 (Homo sapiens, UniProt P35968); assay: cell-based; assay type: cell-based; conditions: for inhibition at 10 µM: HCT-116, HCT116; for VEGFR-2 pg/mL ± SEM HCT116: at 10 μM, control 317.80 ± 3.5
T1 construct: endogenous in cells; host or cells: HCT116, PaCa2, MCF7 (human cancer cell lines, ATCC origin)

VEGFR-2 [7] = biological target: T1, VEGFR-2; assay: cell-based; assay type: cell-based; conditions: for inhibition at 10 µM: PaCa-2, PaCa2; for VEGFR-2 pg/mL ± SEM PaCa2: at 10 μM, control 326.80 ± 1.9
VEGFR-2 [8] = biological target: T1, VEGFR-2; assay: cell-based; assay type: cell-based; conditions: for inhibition at 10 µM: MCF7; for VEGFR-2 pg/mL ± SEM MCF7: at 10 μM, control 258.70 ± 2.3
COX-1 = biological target: T2, COX-1 (Ovis aries, UniProt P05979); assay: biochemical; conditions: 3 replicates, read-out: % Inhibition of COX-1 ± SEM
T2 construct: purchased BioVision incorporated USA K548–100
T2 sequence (P05979 25-600): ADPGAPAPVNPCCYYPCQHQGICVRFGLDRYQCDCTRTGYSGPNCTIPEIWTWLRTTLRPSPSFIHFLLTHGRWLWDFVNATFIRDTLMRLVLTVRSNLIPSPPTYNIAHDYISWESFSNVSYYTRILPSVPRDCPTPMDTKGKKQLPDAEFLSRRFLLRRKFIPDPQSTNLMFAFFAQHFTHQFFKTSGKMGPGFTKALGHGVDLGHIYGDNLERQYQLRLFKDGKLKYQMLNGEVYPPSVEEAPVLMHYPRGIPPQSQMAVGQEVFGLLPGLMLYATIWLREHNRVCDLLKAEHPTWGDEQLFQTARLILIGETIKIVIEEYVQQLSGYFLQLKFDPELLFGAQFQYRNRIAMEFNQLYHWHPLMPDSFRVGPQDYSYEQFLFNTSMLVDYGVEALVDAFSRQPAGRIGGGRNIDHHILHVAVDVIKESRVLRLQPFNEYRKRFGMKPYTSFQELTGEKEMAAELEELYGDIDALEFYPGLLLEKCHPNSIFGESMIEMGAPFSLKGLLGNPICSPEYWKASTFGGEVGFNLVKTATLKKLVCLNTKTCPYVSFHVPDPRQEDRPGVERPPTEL

COX-2 = biological target: T3, COX-2 (Homo sapiens, UniProt P35354); assay: biochemical; conditions: for inhibition at 10 µM: 3 replicates, read-out: % Inhibition of COX-2 ± SEM; for SI (selectivity index, COX-2/COX-1): at 10 μM
T3 construct: purchased BioVision incorporated USA K548–100
T3 sequence (P35354 18-604): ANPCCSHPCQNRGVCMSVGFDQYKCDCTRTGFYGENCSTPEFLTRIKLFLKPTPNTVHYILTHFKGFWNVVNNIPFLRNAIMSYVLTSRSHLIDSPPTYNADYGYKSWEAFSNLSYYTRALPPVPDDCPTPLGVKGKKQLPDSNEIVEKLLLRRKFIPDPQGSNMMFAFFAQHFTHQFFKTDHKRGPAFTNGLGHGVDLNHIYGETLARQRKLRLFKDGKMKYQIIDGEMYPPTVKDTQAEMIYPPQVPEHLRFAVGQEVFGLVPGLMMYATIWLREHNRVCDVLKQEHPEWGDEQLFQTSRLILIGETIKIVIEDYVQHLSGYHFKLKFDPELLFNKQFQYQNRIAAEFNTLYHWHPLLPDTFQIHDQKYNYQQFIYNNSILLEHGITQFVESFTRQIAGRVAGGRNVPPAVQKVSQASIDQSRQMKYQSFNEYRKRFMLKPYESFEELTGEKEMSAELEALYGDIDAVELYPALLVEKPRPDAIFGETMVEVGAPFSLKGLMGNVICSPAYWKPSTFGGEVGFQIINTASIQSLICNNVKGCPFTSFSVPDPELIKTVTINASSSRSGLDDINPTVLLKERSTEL

TNF-α [9] = assay: TNF-α inhibitory properties (ELISA), HCT116 cell lysate; assay type: cell-based, human; conditions: at 10 μM; for TNF-α pg/mL (± SEM) HCT116: control 95.74 ± 0.5
TNF-α [10] = assay: TNF-α inhibitory properties (ELISA), PaCa2 cell lysate; assay type: cell-based, human; conditions: for TNF-α pg/mL (± SEM) PaCa2 / TNF-α % inhibition PaCa2: at 10 μM; for TNF-α pg/mL (± SEM) PaCa2: control 111.8 ± 2.0
TNF-α [11] = assay: TNF-α inhibitory properties (ELISA), MCF7 cell lysate; assay type: cell-based, human; conditions: at 10 μM; for TNF-α pg/mL (± SEM) MCF7: control 83.26 ± 1.1
CAM blood vessel network = assay: Chick chorioallantoic membrane (CAM) anti-angiogenic assay; assay type: in vivo, chicken; conditions: 20 μL of 660 μM, 3 days; for Diameter of blood vessel (μm ± SEM): CAM test, control 459.7 ± 13.8
Experimental: CAM assay is an established xenograft technique for investigating the angiogenic effect due to the high resemblance of the human vascularized epithelium basement membrane with that of the chorioallantoic layer containing mainly type IV collagen[84]–[86].
Fig. 10 Images of light microscopy for anti-angiogenic evaluation of the tested compounds using CAM assay. […] The glass slide was placed on the surface of the CAM blood vessel network and left in an incubator at 37 °C for 3 days. The CAM blood vessel network was carefully cut and imaged under a light microscope (40 × magnification).
Fertilized white chicken eggs were incubated in a 37 °C incubator with constant humidity. On day 8, a small squared window was opened allowing the detachment of the growing CAM and shell. The opening was covered with an elastic bandage. […] The CAM was then sealed with a bandage and placed back in the incubator. CAMs were examined daily until day 12 (3 days), the vascularized membranes were then cut around the glass slide and fixed in 5% formalin. Images were taken with an Evos microscope at 40x and 100x magnification^9. Main blood vessel in the microscopic images of controls and samples were quantified by imageJ and analyzed for significant differences (n = 4).

[12] = MTT, 72 h incubation, HCT116 colon, read-out: IC50, μM ± SEM HCT116
[13] = log of observed IC50 (μM), HCT116, read-out: Log(observed property) (converted)

T1 sequence (P35968 20-1356): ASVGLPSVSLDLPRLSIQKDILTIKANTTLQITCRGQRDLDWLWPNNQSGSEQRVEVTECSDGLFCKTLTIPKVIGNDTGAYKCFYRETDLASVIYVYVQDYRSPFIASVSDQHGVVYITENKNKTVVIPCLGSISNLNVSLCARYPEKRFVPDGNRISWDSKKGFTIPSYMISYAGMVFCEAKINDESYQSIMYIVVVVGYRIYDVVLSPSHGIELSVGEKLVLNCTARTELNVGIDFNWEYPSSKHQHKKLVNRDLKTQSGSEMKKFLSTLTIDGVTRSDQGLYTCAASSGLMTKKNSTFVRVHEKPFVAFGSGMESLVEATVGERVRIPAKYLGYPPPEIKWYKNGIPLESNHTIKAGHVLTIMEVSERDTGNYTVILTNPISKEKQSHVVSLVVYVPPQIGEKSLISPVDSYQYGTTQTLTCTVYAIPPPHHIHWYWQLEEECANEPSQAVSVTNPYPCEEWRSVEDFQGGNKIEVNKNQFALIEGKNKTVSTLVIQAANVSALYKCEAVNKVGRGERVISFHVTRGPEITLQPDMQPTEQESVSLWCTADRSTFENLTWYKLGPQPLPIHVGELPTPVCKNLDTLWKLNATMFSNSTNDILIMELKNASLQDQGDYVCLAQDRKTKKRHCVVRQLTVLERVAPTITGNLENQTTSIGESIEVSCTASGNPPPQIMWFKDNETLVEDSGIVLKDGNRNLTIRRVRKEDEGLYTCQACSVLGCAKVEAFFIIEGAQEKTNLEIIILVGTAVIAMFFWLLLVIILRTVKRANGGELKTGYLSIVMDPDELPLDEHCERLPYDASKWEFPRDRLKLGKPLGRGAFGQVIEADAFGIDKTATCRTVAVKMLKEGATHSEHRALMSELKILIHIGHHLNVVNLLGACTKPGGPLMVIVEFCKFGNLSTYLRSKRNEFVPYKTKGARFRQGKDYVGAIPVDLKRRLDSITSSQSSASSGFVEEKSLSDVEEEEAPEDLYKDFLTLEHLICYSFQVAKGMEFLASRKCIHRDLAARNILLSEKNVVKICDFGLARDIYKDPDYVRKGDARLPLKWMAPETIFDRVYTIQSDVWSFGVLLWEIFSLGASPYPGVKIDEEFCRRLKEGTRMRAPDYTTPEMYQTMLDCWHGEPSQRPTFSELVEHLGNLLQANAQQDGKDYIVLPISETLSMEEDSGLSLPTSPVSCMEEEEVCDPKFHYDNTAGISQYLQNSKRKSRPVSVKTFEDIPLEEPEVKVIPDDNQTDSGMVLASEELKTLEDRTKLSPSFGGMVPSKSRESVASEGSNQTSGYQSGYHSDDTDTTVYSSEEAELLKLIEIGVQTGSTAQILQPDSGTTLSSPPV

| SMILES | IC50 [1, 12] | SI (selectivity index) HCT116 [1] | 1/(observed property) [2] | IC50 [2] | SI (selectivity index) PaCa2 [2] | IC50 [3] | SI (selectivity index) MCF7 [3] | IC50 [4] | IC50 [5] | inhibition at 10 µM (VEGFR-2 [6]) | VEGFR-2 pg/mL ± SEM HCT116 (VEGFR-2 [6]) | inhibition at 10 µM (VEGFR-2 [7]) | VEGFR-2 pg/mL ± SEM PaCa2 (VEGFR-2 [7]) | inhibition at 10 µM (VEGFR-2 [8]) | VEGFR-2 pg/mL ± SEM MCF7 (VEGFR-2 [8]) | inhibition at 10 µM (COX-1) | inhibition at 10 µM (COX-2) | TNF-α pg/mL (± SEM) HCT116 (TNF-α [9]) | TNF-α pg/mL (± SEM) PaCa2 (TNF-α [10]) | TNF-α % inhibition MCF7 (TNF-α [11]) | further results |
| --- | --- | --- | --- | --- | --- | --- | --- | --- | --- | --- | --- | --- | --- | --- | --- | --- | --- | --- | --- | --- | --- |
| CCOP(=O)(OCC)N1C/C(=C\c2ccccc2)C(=O)C2(C1)C(c1ccccc1)CN(C)C21C(=O)Nc2ccccc21 (stereo not shown) [Compound 17a, Diethyl (E)-(5′′-benzylidene-1′-methyl-2,4′′-dioxo-4′-phenyldispiro[indoline-3,2′-pyrrolidine-3′,3′′-piperidin]-1′′-yl)phosphonate] | 7.97 ± 0.338 µM | 2.1 | 0.0774 | 12.9 ± 0.559 µM | 1.3 | 5.86 ± 0.259 µM | 2.9 | 14.5 ± 0.259 µM | 16.8 ± 0.516 µM | 88% | 38.20 ± 1.6 pg/mL | 94.1% | 19.26 ± 1.0 pg/mL | 80.1% | 51.50 ± 0.8 pg/mL | 49.8 ± 1.8% | 64.9 ± 2.8% | 24.86 ± 0.8 pg/mL | 24.8 ± 1.5 pg/mL | 78.1% | IC50 [1, 13]: 7.97 µM; SI (selectivity index) A549 [4]: 1.2; TNF-α % inhibition HCT116 (TNF-α [9]): 74.0%; TNF-α pg/mL (± SEM) MCF7 (TNF-α [11]): 18.25 ± 1.1 pg/mL; Diameter of blood vessel (μm ± SEM) (CAM blood vessel network): 80.7 ± 3.7 μm |
| CCOP(=O)(OCC)N1C/C(=C\c2ccc(Cl)cc2)C(=O)C2(C1)C(c1ccc(Cl)cc1)CN(C)C21C(=O)Nc2ccc(F)cc21 (stereo not shown) [Compound 17i, Diethyl (E)-(5′′-(4-chlorobenzylidene)-4′-(4-chlorophenyl)-5-fluoro-1′-methyl-2,4′′-dioxodispiro[indoline-3,2′-pyrrolidine-3′,3′′-piperidin]-1′′-yl)phosphonate] | 4.14 ± 0.042 µM | > 12.1 | 0.07435 | 13.5 ± 0.898 µM | > 3.7 | 4.81 ± 0.148 µM | > 10.4 | > 50 µM | > 50 µM | 74.4% | 81.40 ± 1.9 pg/mL | 86.9% | 42.76 ± 0.7 pg/mL | 80.9% | 49.50 ± 0.3 pg/mL | 46.2 ± 2.4% | 49.7 ± 1.9% | 28.56 ± 0.9 pg/mL | 22.8 ± 1.6 pg/mL | 62.4% | IC50 [1, 13]: 4.14 µM; selectivity index (SI) ([5]; IC50 against RPE1 compared to the tested cancer cell line(s), in words): high selectivity index; SI (selectivity index, COX-2/COX-1) (COX-2): 1.09; TNF-α inhibition fold of the standard ibuprofen (TNF-α [10]; 10 μM): 1.9 fold; TNF-α inhibition fold of the standard indomethacin (TNF-α [10]; 10 μM): 2.4 fold; TNF-α % inhibition PaCa2 (TNF-α [10]): 79.6%; TNF-α pg/mL (± SEM) MCF7 (TNF-α [11]): 31.27 ± 1.3 pg/mL; % Inhibition of the blood vessels in CAM test (CAM blood vessel network): 52.3%; Diameter of blood vessel (μm ± SEM) (CAM blood vessel network): 219.3 ± 5.6 μm |
| CCOP(=O)(OCC)N1C/C(=C\c2cccs2)C(=O)C2(C1)C(c1cccs1)CN(C)C21C(=O)Nc2ccc(C)cc21 (stereo not shown) [Compound 17t, Diethyl (E)-(1′,5-dimethyl-2,4′′-dioxo-4′-(thiophen-2-yl)-5′′-(thiophen-2-ylmethylene)dispiro[indoline-3,2′-pyrrolidine-3′,3′′-piperidin]-1′′-yl)phosphonate] | 7.34 ± 0.161 µM | 3.5 | 0.1056 | 9.47 ± 0.097 µM | 2.7 | 6.45 ± 0.111 µM | 3.9 | 14.1 ± 0.201 µM | 25.4 ± 0.951 µM | 60.8% | 124.70 ± 1.3 pg/mL | 64.8% | 115.00 ± 0.9 pg/mL | 62.6% | 96.70 ± 1.2 pg/mL | 49.2 ± 1.9% | 63.7 ± 1.7% | 81.64 ± 2.1 pg/mL | 95.8 ± 2.5 pg/mL | 0.4% | SI (selectivity index) A549 [4]: 1.8; SI (selectivity index, COX-2/COX-1) (COX-2): 1.29; TNF-α % inhibition HCT116 (TNF-α [9]): 14.7%; TNF-α % inhibition PaCa2 (TNF-α [10]): 14.3%; TNF-α pg/mL (± SEM) MCF7 (TNF-α [11]): 82.91 ± 3.8 pg/mL |
